The results in this text go back to US20220315554A1, “COMPOUNDS COMPRISING A […] LIGAND AND USE THEREOF” (priority 2019, published 2022).

Each structure is given as a SMILES string. Numbered stars: 1 amine (or outer) side, 2 acyl side, 3 side chain; on linkers, the order of the positions; unused ones are H or OH. Bridge positions count the residues as written; N and C are the ends. Square brackets hold non-standard residues; d marks the D form. Peptide text beside a SMILES is read from it. * marks the point of attachment. NH(CH2)3NH(O2Oc(DOTA)) = O=C(O)CN1CCN(CC(=O)O)CCN(CC(=O)NCCOCCOCC(=O)NCCCN*)CCN(CC(=O)O)CC1; X47 = O=C(O)CN1CCN(CC(=O)O)CCN(CC(=O)NCCCCCNC(=O)CCC(=O)NCCCOCCOCCOCCCN*)CCN(CC(=O)O)CC1; NH(CH2)3NHDOTA = O=C(O)CN1CCN(CC(=O)O)CCN(CC(=O)NCCCN*)CCN(CC(=O)O)CC1; Pyridine(2,6-diCH2) = c1cc(C[*:1])nc(C[*:2])c1; Phe(2-CF3) = N[C@@H](Cc1ccccc1C(F)(F)F)C(=O)O; mXylylene = c1cc(C[*:1])cc(C[*:2])c1; Octanoyl = CCCCCCCC(=O)*; Hexanoyl = CCCCCC(=O)*; CO = O=C([*:1])[*:2]; NHPentyl = CCCCCN*; βAla = NCCC(=O)O

What is called IC50 is the concentration that inhibits the measured activity by half.

Assay [1] deals with T1, FAP-expressing human WI-38 fibroblasts (Homo sapiens, UniProt Q12884).
T1 construct: FAP-expressing human WI-38 fibroblasts (ECACC) were cultured in EMEM; host or cells: WI-38 human fibroblasts
T1 sequence (Q12884 1-760): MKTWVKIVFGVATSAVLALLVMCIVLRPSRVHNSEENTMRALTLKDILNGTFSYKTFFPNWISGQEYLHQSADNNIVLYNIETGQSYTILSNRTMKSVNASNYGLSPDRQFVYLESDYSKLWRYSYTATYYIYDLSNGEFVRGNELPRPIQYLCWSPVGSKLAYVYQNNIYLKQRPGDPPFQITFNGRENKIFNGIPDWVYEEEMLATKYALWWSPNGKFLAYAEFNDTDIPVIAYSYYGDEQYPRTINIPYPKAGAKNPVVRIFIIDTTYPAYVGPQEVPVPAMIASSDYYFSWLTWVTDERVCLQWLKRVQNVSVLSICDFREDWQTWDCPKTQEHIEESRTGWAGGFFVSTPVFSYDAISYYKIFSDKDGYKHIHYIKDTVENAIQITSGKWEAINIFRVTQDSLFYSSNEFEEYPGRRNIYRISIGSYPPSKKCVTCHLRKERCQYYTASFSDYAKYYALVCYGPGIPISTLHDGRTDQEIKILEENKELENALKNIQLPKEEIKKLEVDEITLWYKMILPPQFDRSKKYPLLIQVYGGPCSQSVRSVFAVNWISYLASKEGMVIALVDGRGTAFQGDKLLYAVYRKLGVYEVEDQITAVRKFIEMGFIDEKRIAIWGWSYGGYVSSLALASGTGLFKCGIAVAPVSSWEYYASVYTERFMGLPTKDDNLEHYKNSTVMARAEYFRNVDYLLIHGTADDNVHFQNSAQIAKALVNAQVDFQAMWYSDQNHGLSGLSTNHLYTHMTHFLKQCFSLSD
The assay is described as follows: Competitive FACS binding assay. The conditions noted are these: pIC50 Category (FACS), competition with 3 nM Cy5-labeled compound, WI-38 fibroblasts, 4° C., 1 hour. Here is the method:
Cells were analyzed in an Attune NxT flow cytometer. […]
A general note: A flow cytometer gives signals particle by particle.

The next assay addresses T2, Human recombinant FAP (Homo sapiens, UniProt Q12884).
T2 sequence (Q12884 1-760): T1 sequence (Q12884 1-760)
Nature of the assay: FRET-based FAP protease activity assay. The assay is classed as biochemical. Further details: purchased R&D systems 3715-SE. The conditions noted are these: pIC50 Category (Activity), recombinant human FAP, FRET substrate, 37° C.

On to `CCCCCC(=O)N[C@H]1CSCc2cccc(c2)CSC[C@@H](C(N)=O)NC(=O)[C@H](Cc2ccccc2)NC(=O)[C@H](CCC(=O)O)NC(=O)[C@H]([C@@H](C)O)NC(=O)[C@@H]2CCCN2C(=O)[C@H](C)NC1=O` [3BP-3346, Hex-[Cys(3MeBn)-Ala-Pro-Thr-Glu-Phe-Cys]-NH2] (Hexanoyl-CAPTEFC-NH2; linker 1-7 via mXylylene), for which the values for the IC50 (in assay [1]; on Human recombinant FAP) were over 1000 nM and 100 to 794 nM, respectively.

Turning to `CCCCCC(=O)N[C@H]1CSCc2cccc(c2)CSC[C@@H](C(N)=O)NC(=O)[C@H](Cc2ccccc2)NC(=O)[C@H](C)NC(=O)[C@H]([C@@H](C)O)NC(=O)[C@@H]2CCCN2C(=O)[C@@H]2CCCN2C1=O` [3BP-3348, Hex-[Cys(3MeBn)-Pro-Pro-Thr-Ala-Phe-Cys]-NH2] (Hexanoyl-CPPTAFC-NH2; linker 1-7 via mXylylene), the IC50 (in assay [1]; at Human recombinant FAP) was over 1000 nM throughout.

As to `CCCCCC(=O)N[C@H]1CSCc2cccc(c2)CSC[C@@H](C(N)=O)NC(=O)[C@H](C)NC(=O)[C@H](CCC(=O)O)NC(=O)[C@H]([C@@H](C)O)NC(=O)[C@@H]2CCCN2C(=O)[C@@H]2CCCN2C1=O` [3BP-3350, Hex-[Cys(3MeBn)-Pro-Pro-Thr-Glu-Ala-Cys]-NH2] (Hexanoyl-CPPTEAC-NH2; linker 1-7 via mXylylene), the 50% inhibitory concentration (IC50) is over 1000 nM in assay [1] and 100 to 794 nM at Human recombinant FAP.

Take `CCCCCC(=O)N[C@H]1CSCc2cccc(c2)CSC[C@@H](C(N)=O)NC(=O)[C@H](Cc2ccccc2)NC(=O)[C@H](CCC(=O)O)NC(=O)[C@H](C)NC(=O)[C@@H]2CCCN2C(=O)[C@@H]2CCCN2C1=O` [3BP-3354, Hex-[Cys(3MeBn)-Pro-Pro-Ala-Glu-Phe-Cys]-NH2] (Hexanoyl-CPPAEFC-NH2; linker 1-7 via mXylylene): the IC50 (in assay [1]; on Human recombinant FAP) was over 1000 nM each time.

With `CCCCCC(=O)N[C@H]1CSCc2cccc(c2)CSC[C@@H](C(=O)O)NC(=O)[C@H](Cc2ccccc2)NC(=O)[C@H](CCC(=O)O)NC(=O)[C@H]([C@@H](C)O)NC(=O)[C@@H]2CCCN2C(=O)[C@@H]2CCCN2C1=O` [3BP-3370, Hex-[Cys(3MeBn)-Pro-Pro-Thr-Glu-Phe-Cys]-OH] (Hexanoyl-CPPTEFC-OH; linker 1-7 via mXylylene), the IC50 (in assay [1]; on Human recombinant FAP) was 10 to 79.4 nM in each case.

As to `CCCCCC(=O)N[C@H]1CSCc2cccc(c2)CSC[C@@H](C(=O)NCCC(=O)O)NC(=O)[C@H](Cc2ccccc2)NC(=O)[C@H](CCC(=O)O)NC(=O)[C@H]([C@@H](C)O)NC(=O)[C@@H]2CCCN2C(=O)[C@@H]2CCCN2C1=O` [3BP-3371, Hex-[Cys(3MeBn)-Pro-Pro-Thr-Glu-Phe-Cys]-Bal-OH] (Hexanoyl-CPPTEFC[βAla]-OH; linker 1-7 via mXylylene), the IC50 in assay [1] is under 10 nM; at Human recombinant FAP it was 10 to 79.4 nM.

On to `C[C@@H](O)[C@@H]1NC(=O)[C@@H]2CCCN2C(=O)[C@@H]2CCCN2C(=O)[C@@H](NC(=O)[C@H](CCCCNC(N)=O)NC(=O)CCC(=O)NCCCOCCOCCOCCCNC(=O)CN2CCN(CC(=O)O)CCN(CC(=O)O)CCN(CC(=O)O)CC2)CSCc2cccc(c2)CSC[C@@H](C(=O)NCCC(=O)O)NC(=O)[C@H](Cc2ccccc2)NC(=O)[C@H](CCC(N)=O)NC1=O` [3BP-3399, DOTA-Ttds-Hci-[Cys(3MeBn)-Pro-Pro-Thr-Gln-Phe-Cys]-Bal-OH], for which the half-inhibitory concentration (IC50) (in assay [1]; at Human recombinant FAP) was over 1000 nM each time.

In the case of `CCCCCC[C@H](NC(=O)CCC(=O)NCCCOCCOCCOCCCNC(=O)CN1CCN(CC(=O)O)CCN(CC(=O)O)CCN(CC(=O)O)CC1)C(=O)N[C@H]1CSCc2cccc(c2)CSC[C@@H](C(=O)NCCC(=O)O)NC(=O)[C@H](Cc2ccccc2)NC(=O)[C@H](CCC(N)=O)NC(=O)[C@H]([C@@H](C)O)NC(=O)[C@@H]2CCCN2C(=O)[C@@H]2CCCN2C1=O` [3BP-3400, DOTA-Ttds-Hgl-[Cys(3MeBn)-Pro-Pro-Thr-Gln-Phe-Cys]-Bal-OH], the values for the IC50 (in assay [1]; at Human recombinant FAP) were over 1000 nM and 10 to 79.4 nM, respectively.

Consider `CCCCCC(=O)N[C@H]1CSCc2cccc(c2)CSC[C@@H](C(=O)N[C@@H](CC(=O)O)C(=O)NCCCOCCOCCOCCCNC(=O)CCC(=O)NCCCCCNC(=O)CN2CCN(CC(=O)O)CCN(CC(=O)O)CCN(CC(=O)O)CC2)NC(=O)[C@H](Cc2ccccc2)NC(=O)[C@H](CCC(N)=O)NC(=O)[C@H]([C@@H](C)O)NC(=O)[C@@H]2CCCN2C(=O)[C@@H]2CCCN2C1=O` [3BP-3404, Hex-[Cys(3MeBn)-Pro-Pro-Thr-Gln-Phe-Cys]-Asp-Ttds-Ape(DOTA)] (Hexanoyl-CPPTQFCD-X47; linker 1-7 via mXylylene), for which the IC50 (in assay [1]; on Human recombinant FAP) was under 10 nM throughout.

Turning to `CCCCCC(=O)N[C@H]1CSCc2cccc(c2)CSC[C@@H](C(N)=O)NC(=O)[C@H](Cc2c[nH]c3ccccc23)NC(=O)[C@H](CCC(N)=O)NC(=O)[C@H]([C@@H](C)O)NC(=O)[C@@H]2CCCN2C(=O)[C@@H]2CCCN2C1=O` [3BP-3408, Hex-[Cys(3MeBn)-Pro-Pro-Thr-Gln-Trp-Cys]-NH2] (Hexanoyl-CPPTQWC-NH2; linker 1-7 via mXylylene), the IC50 (in assay [1]; on Human recombinant FAP) was 10 to 79.4 nM in each case.

In the case of `CCCCCC(=O)N[C@H]1CSCc2cccc(c2)CSC[C@@H](C(=O)N[C@@H](CC(=O)O)C(N)=O)NC(=O)[C@H](Cc2ccccc2C(F)(F)F)NC(=O)[C@H](CCC(N)=O)NC(=O)[C@H]([C@@H](C)O)NC(=O)[C@@H]2CCCN2C(=O)[C@@H]2CCCN2C1=O` [3BP-3409, Hex-[Cys(3MeBn)-Pro-Pro-Thr-Gln-Otf-Cys]-NH2] (Hexanoyl-CPPTQ[Phe(2-CF3)]CD-NH2; linker 1-7 via mXylylene), the figures for the IC50 (in assay [1]; at Human recombinant FAP) were 10 to 79.4 nM and under 10 nM, respectively.

For `CCCCCCCC(=O)N[C@H]1CSCc2cccc(c2)CSC[C@@H](C(=O)N[C@@H](CC(=O)O)C(N)=O)NC(=O)[C@H](Cc2ccccc2)NC(=O)[C@H](CCC(N)=O)NC(=O)[C@H]([C@@H](C)O)NC(=O)[C@@H]2CCCN2C(=O)[C@@H]2CCCN2C1=O` [3BP-3417, Oct-[Cys(3MeBn)-Pro-Pro-Thr-Gln-Phe-Cys]-Asp-NH2] (Octanoyl-CPPTQFCD-NH2; linker 1-7 via mXylylene), the IC50 (in assay [1]; on Human recombinant FAP) was 10 to 79.4 nM each time.

Consider `CCCCCNC(=O)N[C@H]1CSCc2cccc(c2)CSC[C@@H](C(=O)N[C@@H](CC(=O)O)C(N)=O)NC(=O)[C@H](Cc2ccccc2)NC(=O)[C@H](CCC(N)=O)NC(=O)[C@H]([C@@H](C)O)NC(=O)[C@@H]2CCCN2C(=O)[C@@H]2CCCN2C1=O` [3BP-3425, PentylNH-urea-[Cys(3MeBn)-Pro-Pro-Thr-Gln-Phe-Cys]-Asp-NH2] ({NHPentyl-CO}-CPPTQFCD-NH2; linker 1-7 via mXylylene), for which the IC50 in assay [1] was 10 to 79.4 nM; at Human recombinant FAP, under 10 nM.

Turning to `CCCCCC(=O)N[C@H]1CSCc2cccc(c2)CSC[C@@H](C(=O)N[C@@H](CC(=O)O)C(N)=O)NC(=O)[C@H](Cc2ccccc2)NC(=O)[C@H](CCC(=O)NCCCNC(=O)CN2CCN(CC(=O)O)CCN(CC(=O)O)CCN(CC(=O)O)CC2)NC(=O)[C@H]([C@@H](C)O)NC(=O)[C@@H]2CCCN2C(=O)[C@@H]2CCCN2C1=O` [3BP-3472, Hex-[Cys(3MeBn)-Pro-Pro-Thr-Glu(NH-Apr-DOTA')-Phe-Cys]-Asp-NH2] (Hexanoyl-CPPTE(NH(CH2)3NHDOTA)FCD-NH2; linker 1-7 via mXylylene), the IC50 (in assay [1]; on Human recombinant FAP) was over 1000 nM throughout.

`CCCCCC(=O)N[C@H]1CSCc2cccc(c2)CSC[C@@H](C(=O)N[C@@H](CC(=O)O)C(N)=O)NC(=O)[C@H](Cc2ccccc2)NC(=O)[C@H](CCC(=O)NCCCNC(=O)COCCOCCNC(=O)CN2CCN(CC(=O)O)CCN(CC(=O)O)CCN(CC(=O)O)CC2)NC(=O)[C@H]([C@@H](C)O)NC(=O)[C@@H]2CCCN2C(=O)[C@@H]2CCCN2C1=O` [3BP-3473, Hex-[Cys(3MeBn)-Pro-Pro-Thr-Glu(NH-Apr-O2O-DOTA')-Phe-Cys]-Asp-NH2] (Hexanoyl-CPPTE(NH(CH2)3NH(O2Oc(DOTA)))FCD-NH2; linker 1-7 via mXylylene): the IC50 (in assay [1]; on Human recombinant FAP) was 100 to 794 nM in each case.

For `CCCCCC(=O)N[C@H]1CSCc2cccc(n2)CSC[C@@H](C(=O)N[C@@H](CC(=O)O)C(N)=O)NC(=O)[C@H](Cc2ccccc2)NC(=O)[C@H](CCC(N)=O)NC(=O)[C@H]([C@@H](C)O)NC(=O)[C@@H]2CCCN2C(=O)[C@@H]2CCCN2C1=O` [3BP-3518, Hex-[Cys(2Lut)-Pro-Pro-Thr-Gln-Phe-Cys]-Asp-NH2] (Hexanoyl-CPPTQFCD-NH2; linker 1-7 via Pyridine(2,6-diCH2)), the IC50 (in assay [1]; on Human recombinant FAP) was under 10 nM throughout.
